Values joined by “and” are separate entries in the source; they are usually repeats but may differ in a detail not shown here. Identical values can stand only once.

In general, IC50 refers to the concentration needed to halve the response being measured. A lower IC50 goes with higher potency.

This assay addresses Nonstructural protein 3 (Zika virus, UniProt A0A024AXB9). Nature of the assay: Functional biochemical assay to identify treatments for viral infectious disease that targets Zika NS2B-NS3 protease. Utilizing a direct enzyme activity measurement method, reading the fluorescence intensity is used to characterize the relative potency of inhibitors as IC50. Also noted: species or system PRVABC59.

Chain of Nonstructural protein 3 (A0A024AXB9 whole entry): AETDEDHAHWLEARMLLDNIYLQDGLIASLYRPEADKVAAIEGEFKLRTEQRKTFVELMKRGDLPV

As to `CCn1c(=O)c(N2CC[C@H](CO)C2)nc2ccc(C(N)=O)cc21`, the IC50 was over 99.5 µM.

The molecule `O=C(Nc1cc(Cl)cc(C(=O)Nc2ccc3c(c2)C[C@H](O)C3)c1)OCc1ccccc1` gave an IC50 of over 99.5 µM.

Consider `CC(C)c1cc(NC(=O)OCc2ccccc2)cc(C(=O)Nc2cccc(CN)c2)c1`, for which it took 20 µM to reach half-maximal inhibition (IC50). Molecule `CNC(=O)C[C@H](Nc1ccccn1)c1cc(Cl)cc(Br)c1` had a 50% inhibitory concentration (IC50) of over 99.5 µM. For `N[C@H]1Cc2ccc(NC(=O)c3cc(Cl)cc(NC(=O)OCc4ccccc4)c3)cc2C1` the value was 2.49 µM. For `O=C(Nc1cc(Cl)cc(C(=O)Nc2ccc3c(c2)C[C@H](F)C3)c1)OCc1ccccc1` the value was over 99.5 µM.

`Cc1nc(-c2ccc(Cl)cc2)sc1C(=O)Nc1cccc(CN)c1` came in with an IC50 of 91.1 µM. The molecule `CCn1c(=O)c(N2CC[C@H](CO)C2)nc2ccc(C(=O)N(C)C)cc21` gave an IC50 of over 99.5 µM. For `NCc1ccc(I)c(NC(=O)c2cc(Cl)cc(NC(=O)OCc3ccccc3)c2)c1`, the IC50 was 50.6 µM. Take `CCn1c(=O)c(N2CC[C@H](CO)C2)nc2cc(C(N)=O)ccc21`: the IC50 is over 99.5 µM. Take `O=C(Nc1cc(Cl)cc(C(=O)Nc2ccc(S(=O)(=O)N3CCNCC3)cc2)c1)OCc1ccccc1`: the IC50 was over 99.5 µM.

With `Cc1c(C(=O)Nc2cccc(CN)c2)cc(C2CC2)n1C`, the IC50 was over 99.5 µM. The molecule `O=C(Nc1cc(Cl)cc(C(=O)Nc2ccc3c(c2)OCO3)c1)OCc1ccccc1` came in with an IC50 of over 99.5 µM. For `NCc1cccc(NC(=O)c2cc(Cl)cc([C@H]3CCCCN3)c2)c1` the value was 7.17 µM; for `O=C(Nc1cc(Cl)cc(C(=O)Nc2cccc([C@H]3C[C@H]3C(=O)O)c2)c1)OCc1ccccc1`, 62.1 µM and 77.7 µM and 77.6 µM. `CS(=O)(=O)c1cc(CN)cc(NC(=O)c2cc(Cl)cc(NC(=O)OCc3ccccc3)c2)c1` displayed an IC50 of 23.3 µM. As to `O=C(O)COc1cccc(NC(=O)c2cc(Cl)cc(NC(=O)OCc3ccccc3)c2)c1`, the IC50 was over 99.5 µM.

`CNC(=O)[C@H](Nc1cccc(N)n1)c1cc(Cl)cc(CN)c1` yielded an IC50 of over 99.5 µM. For `Cc1c(C(=O)Nc2cccc(CN)c2)cc(C(C)C)n1C`, the IC50 was over 99.5 µM. Regarding `O=C1NC[C@H](c2ccc(OCc3ccccc3)c(Br)c2)N1C(=O)OCc1ccccc1`, the IC50 is over 99.5 µM. To `O=Cc1cc(Cl)cc(NC(=O)OCc2ccccc2)c1` belongs over 99.5 µM. Take `NCCNS(=O)(=O)c1ccc(NC(=O)c2cc(Cl)cc(NC(=O)OCc3ccccc3)c2)cc1`: the IC50 worked out at 10.9 µM. For `O=C(Nc1cc(Cl)cc(C(=O)Nc2ccc(C3CCNCC3)cc2)c1)OCc1ccccc1`, the IC50 amounted to 6.02 µM.

The molecule `O=C(Nc1cc(Cl)cc(C(=O)Nc2cccc(-c3cn[nH]n3)c2)c1)OCc1ccccc1` had an IC50 of over 99.5 µM. In turn, `CCc1cc(C(=O)Nc2cccc(CN)c2)sc1C` showed an IC50 of over 99.5 µM. `Cc1onc(C(=O)Nc2cccc(CN)c2)c1COc1cccc(F)c1` had an IC50 of over 99.5 µM. To `NCc1ccc(C#CCO)c(NC(=O)c2cc(Cl)cc(NC(=O)OCc3ccccc3)c2)c1` belongs 30.6 µM; to `Cc1nn(CCO)c(C(F)F)c1C(=O)Nc1cccc(CN)c1`, over 99.5 µM; to `NCc1cccc(NC(=O)c2c(C(F)(F)F)nc3n2CCCC3)c1`, over 99.5 µM. The molecule `Cc1cnnc(C(=O)Nc2cccc(CN)c2)c1` registered an IC50 of over 99.5 µM. `N#CC[C@H](N)c1cccc(NC(=O)c2cc(Cl)cc(NC(=O)OCc3ccccc3)c2)c1` came in with an IC50 of over 99.5 µM. For the molecule `CCn1c(=O)c(N2CC[C@H](CO)C2)nc2ccc(C(=O)NCc3ccccc3)cc21`, the IC50 was over 99.5 µM.

`O=C(Nc1cc(Cl)cc(C(=O)Nc2ccc(OC3CNC3)cc2)c1)OCc1ccccc1` came in with an IC50 of 5.64 µM. In turn, `CSc1cc(Cl)cc(C(=O)Nc2cccc(-n3nn[nH]c3=O)c2)c1` returned an IC50 of over 99.5 µM.

On to `Cc1nc(N2CCOCC2)sc1CC(=O)Nc1cccc(CN)c1`, for which the IC50 was over 99.5 µM. For `NCCCCc1ccc(NC(=O)c2cc(Cl)cc(NC(=O)OCc3ccccc3)c2)cc1` the value was 5.42 µM. Turning to `CS(=O)(=O)c1ccc(CN)cc1NC(=O)c1cc(Cl)cc(NC(=O)OCc2ccccc2)c1`, it took 19.8 µM to reach half-maximal inhibition (IC50). For the molecule `O=C(O)CCc1ccc(NC(=O)c2cc(Cl)cc(NC(=O)OCc3ccccc3)c2)cc1`, the IC50 was over 99.5 µM. Molecule `CC(C)c1occ(C(F)(F)F)c1C(=O)Nc1cccc(CN)c1` yielded an IC50 of over 99.5 µM.

In turn, `CCn1c(=O)c(N2CC[C@H](CO)C2)nc2cc(C(=O)N(C)C)ccc21` returned an IC50 of over 99.5 µM. In turn, `NCc1ccc(COc2ccc(-c3ccc(N)nc3)c3c2OB(O)CC3)cc1` displayed an IC50 of over 99.5 µM. Regarding `CC(C)(C)OC(=O)NCc1ccc(I)c(NC(=O)c2cc(Cl)cc(NC(=O)OCc3ccccc3)c2)c1`, the IC50 was over 99.5 µM.

`CNC(=O)[C@H](Nc1ccccn1)c1cc(Cl)cc(CN)c1` returned an IC50 of over 99.5 µM. In turn, `NCc1nc(-c2ccc(NC(=O)c3cc(Cl)cc(NC(=O)OCc4ccccc4)c3)cc2)n[nH]1` displayed an IC50 of over 99.5 µM. To `NCc1cccc(NC(=O)[C@H]2CC(=O)Nc3ccc(Br)cc32)c1` belongs over 99.5 µM.

On to `Cc1cc(C(=O)Nc2cccc(CN)c2)c2sc(N)nc2n1`, for which the IC50 was over 99.5 µM. For `O=C(Nc1cc(Cl)cc(C(=O)Nc2ccc(-n3nn[nH]c3=O)cc2)c1)OCc1ccccc1` the value was 30.9 µM. `O=C(Nc1cc(Cl)cc(C(=O)Nc2ccc([C@H]3CNCCO3)cc2)c1)OCc1ccccc1` showed an IC50 of over 99.5 µM. In turn, `Cn1nc(C(=O)Nc2cccc(CN)c2)cc1C1CC1` registered an IC50 of over 99.5 µM. Molecule `NC[C@H]1C[C@H]1NC(=O)c1cc(Cl)cc(NC(=O)OCc2ccccc2)c1` registered an IC50 of over 99.5 µM. Regarding `CCc1onc(C2CCOCC2)c1C(=O)Nc1cccc(CN)c1`, the IC50 was over 99.5 µM.

Consider `Cn1cc(C(=O)Nc2cccc(CN)c2)c(-c2cnccn2)n1`, for which the IC50 was over 99.5 µM. Take `O=C(Nc1cc(Cl)cc(C(=O)Nc2ccc(N3CCNCC3)c(F)c2)c1)OCc1ccccc1`: half-maximal inhibition (IC50) was put at 15.7 µM. For `O=C(Nc1ccc2c(c1)CNC2)c1cc(O)nc(C2CC2)c1` the value was 7.58 µM. To `N[C@H]1CC[C@H](c2ccc(NC(=O)c3cc(Cl)cc(NC(=O)OCc4ccccc4)c3)cc2)C1` belongs 5.01 µM; to `O=C(Nc1cc(Cl)cc(C(=O)Nc2cccc(C(=O)O)c2)c1)OCc1ccccc1`, 84 µM.

`N[C@H]1CCN(c2ccc(NC(=O)c3cc(Cl)cc(NC(=O)OCc4ccccc4)c3)cc2)C1` came in with an IC50 of 7.72 µM. In turn, `NC[C@H]1C[C@@H]1NC(=O)c1cc(Cl)cc(NC(=O)OCc2ccccc2)c1` showed an IC50 of 21.5 µM. For `NC1CCN(c2ccc(NC(=O)c3cc(Cl)cc(NC(=O)OCc4ccccc4)c3)cc2)CC1`, inhibition was half-maximal at 7.28 µM (IC50). Take `O=C(Nc1cc(Cl)cc(C(=O)Nc2ccc3c(c2)COC3)c1)OCc1ccccc1`: the IC50 was over 99.5 µM. Take `CCn1c(=O)c(N2CC[C@H](CO)C2)nc2cc(C(=O)NS(C)(=O)=O)ccc21`: the IC50 was over 99.5 µM. `CCNC(=O)c1ccc2nc(N3CC[C@H](CO)C3)c(=O)n(CC)c2c1` gave an IC50 of over 99.5 µM. For `O=C(Nc1cc(Cl)cc(C(=O)Nc2ccc(N3CCCNCC3)cc2)c1)OCc1ccccc1` the value was 8.78 µM; for `NCc1cccc(NC(=O)[C@H]2CCCN(C(=O)CC3CC3)C2)c1`, over 99.5 µM; for `CCn1c(=O)c(N2CC[C@H](CO)C2)nc2cc(C(=O)NCc3ccccc3)ccc21`, over 99.5 µM. `NCc1cccc(NC(=O)c2nc(C3CC3)n(-c3ccccc3Cl)n2)c1` displayed a 50% inhibitory concentration (IC50) of over 99.5 µM.

In turn, `O=C(Nc1cc(Cl)cc(C(=O)Nc2ccc([C@H]3CCNC3)cc2)c1)OCc1ccccc1` registered an IC50 of 5.43 µM. Turning to `CS(=O)(=O)c1ccc(NC(=O)c2cc(Cl)cc(NC(=O)OCc3ccccc3)c2)cc1`, the IC50 was over 99.5 µM. Molecule `NCc1cc(NC(=O)c2cc(Cl)cc(NC(=O)OCc3ccccc3)c2)cc(C2CC2)c1` displayed an IC50 of 6.67 µM. Regarding `CCOc1cccc(-c2ccc(NS(=O)(=O)c3cc(F)c(Cl)cc3C(=O)O)cc2)c1`, the IC50 turned out to be 21.8 µM. Regarding `O=C(Nc1cc(Cl)cc(C(=O)Nc2ccc(CC3CCNCC3)cc2)c1)OCc1ccccc1`, the IC50 was 5.23 µM. The molecule `Cc1cc(C(=O)Nc2cccc(CN)c2)c(NC(=O)[C@H]2CCCO2)s1` returned an IC50 of 5.86 µM. Regarding `NCc1cccc(NC(=O)c2cc(Br)cc(-n3cnnn3)c2)c1`, the IC50 was 7.07 µM. With `C[C@H]1CNC[C@@H]1c1ccc(NC(=O)c2cc(Cl)cc(NC(=O)OCc3ccccc3)c2)cc1`, 7.26 µM corresponded to half-maximal inhibition (IC50). For `CCn1c(=O)c(N2CC[C@@H](CO)C2)nc2ccc(C(=O)O)cc21` the value was over 99.5 µM. Consider `CNC(=O)C[C@H](Nc1ccccn1)c1cc(Cl)cc(CN)c1`, for which the IC50 was over 99.5 µM.

Take `COc1cc(C(=O)Nc2cccc(CN)c2)cc2cn(C)nc12`: the IC50 is over 99.5 µM. Turning to `O=C(Nc1cc(Cl)cc(C(=O)Nc2ccc3c(c2)CCNC3)c1)OCc1ccccc1`, the IC50 worked out at 1.48 µM.

`CCNC(=O)c1ccc2c(c1)nc(N1CC[C@H](CO)C1)c(=O)n2CC` came in with an IC50 of over 99.5 µM.

In turn, `O=C(Nc1cc(Cl)cc(C(=O)Nc2ccc([C@]34CNC[C@H]3C4)cc2)c1)OCc1ccccc1` showed an IC50 of 21.2 µM. The molecule `Cc1oc(C(=O)Nc2cccc(CN)c2)cc1COc1ccccc1` came in with an IC50 of over 99.5 µM. As to `CN(C)[C@H](C(=O)Nc1cccc(CN)c1)c1cc(Cl)cc(Cl)c1`, the IC50 is over 99.5 µM. For `NCc1cccc(NC(=O)c2cc(Cl)cc(Cl)c2OCc2ccccc2)c1` the value was over 99.5 µM; for `O=C(Nc1cc(Cl)cc(C(=O)Nc2ccc(C3CNC3)cc2)c1)OCc1ccccc1`, 5.99 µM. For `CCn1c(=O)c(N2CC[C@H](CO)C2)nc2ccc(C(=O)OC)cc21` the value was over 99.5 µM.

With `O=C(Nc1cc(Cl)cc(C(=O)Nc2ccc3c(c2)C(=O)OC3)c1)OCc1ccccc1`, the IC50 was over 99.5 µM. Molecule `N#Cc1cc(NC(=O)OCc2ccccc2)cc(C(=O)Nc2cccc(CN)c2)c1` yielded an IC50 of 15.4 µM. Molecule `Cc1[nH]c2ccc(Br)cc2c1CC(=O)Nc1cccc(CN)c1` displayed an IC50 of over 99.5 µM.

Molecule `O=C(O)Cc1cccc(NC(=O)c2cc(Cl)cc(NC(=O)OCc3ccccc3)c2)c1` displayed an IC50 of over 99.5 µM. Regarding `NCc1cccc(NC(=O)c2cc(C(F)(F)F)cnc2N2CCOCC2)c1`, the IC50 was over 99.5 µM. Consider `C[C@H]1C[C@@H](C(=O)Nc2cccc(CN)c2)CCO1`, for which the IC50 was over 99.5 µM.

Source of the values: ChEMBL document CHEMBL5604062, “ASAP - ZIKV NS2B-NS3 protease fluorescence dose response” (2024).
